According to patent US9475808B2, “Inhibitor compounds of phosphodiesterase type 10A” (AbbVie Deutschland GmbH & Co. KG, priority 2013, dated 2016):

How the values were obtained:
[1] = Determination of the microsomal half-life / microsomal clearance, human liver microsomes; conditions: 0.5 μM test substance, 0.25 mg microsomal protein/ml, pH 7.4, 37° C., NADPH
Description: (§1) The test substances were incubated in a concentration of 0.5 μM as follows:
(§2) 0.5 μM test substance are preincubated together with liver microsomes from different species (from rat, human or other species) (0.25 mg of microsomal protein/ml) in 0.05 M potassium phosphate buffer of pH 7.4 in microtiter plates at 37° C. for 5 min. The reaction is started by adding NADPH (1 mg/mL). After 0, 5, 10, 15, 20 and 30 min, 50 μl aliquots are removed, and the reaction is immediately stopped and cooled with the same volume of acetonitrile. The samples are frozen until analyzed. The remaining concentration of undegraded test substance is determined by MSMS. The half-life (T½) is determined from the gradient of the signal of test substance/unit time plot, it being possible to calculate the half-life of the test substance, assuming first order kinetics, from the decrease in the concentration of the compound with time. The microsomal clearance (mCl) is calculated from mCl=ln 2/T½/(content of microsomal protein in mg/ml)×1000 [ml/min/mg]

[2] = Determination of the microsomal half-life / microsomal clearance, rat liver microsomes; conditions: 0.5 μM test substance, 0.25 mg microsomal protein/ml, pH 7.4, 37° C., NADPH
Description: as §1, §2

PDE10A = PDE10A (UniProt Q9Y233); assay: Measurement of PDE activity (HTRF cAMP assay, recombinant enzyme); format: biochemical; conditions: 20 nM cyclic nucleotide substrate, 60 minutes at 29 C
Description: The recombinant PDE proteins are used in in vitro enzymatic reaction for measurement of PDE activity. These recombinant proteins, including PDE10A (human, rat and mouse PDE10) and isoforms of PDEs 1, 3, 4, and 5, were purchased from commercial vendor BPS Bioscience. The enzymatic activity of PDEs was determined by cAMP measurement kit from CisBio (IBA) using HTRF technology.
The PDE enzymatic reaction was carried out in assay buffer (20 mM Tris-HCl pH7.5, 10 mM MgCl2, 0.1% bovine serum albumin) containing enzyme and substrate. The PDE enzymes concentration ranged from 10 pM-250 pM, depending on each enzyme's specific activity. The substrate cyclic nucleotide (cAMP or cGMP) concentration used in the assay was 20 nM for PDE10, and 100 nM for other PDEs. The inhibitory effect of compound was determined by incubating various concentration of inhibitor in the enzymatic assay. Typically, compound was serial diluted in DMSO then further diluted in assay buffer. Next, the compound at varying concentration was mixed with PDE enzyme. The reaction was initiated by addition of cyclic nucleotide substrate, and incubated for 60 minutes at 29 C. The reaction was stopped by addition of lysis buffer from assay kit. The cAMP-d2 and anti-cAMP cryptate in the lysis buffer detected the level of cAMP left from the PDE hydrolysis reaction. The PDE activity is reversely correlated with the amount of cAMP left in the reaction and can be converted to the percent activity of an uninhibited control (100%). Thus, IC50 value of inhibitor can be obtained by plotting inhibitor concentration against PDE activity at that concentration.

rats [3] = conditions: cited from earlier work
rats [4] = conditions: cited from earlier work; remark: listed apart in the source

| SMILES | Human mCl [1] | Rat mCl [2] | IC50 (PDE10A) [nM] | hyperactivity induced by PCP (rats [3]; PCP-induced) | reduction of amphetamine-induced hyperactivity (rats [3]; amphetamine-induced) | catalepsy on its own (rats [4]; alone) | cataleptic effect of the D2 receptor antagonist haloperidol (rats [4]; with haloperidol) |
| --- | --- | --- | --- | --- | --- | --- | --- |
| Cn1cc2c(c(N3CCOCC3)c1=O)C(=O)N(CCc1nc3n(n1)CCCC3)C2 [Example 25, 5-Methyl-7-morpholin-4-yl-2-[2-(5,6,7,8-tetrahydro-[1,2,4]triazolo[1,5-a]pyridin-2-yl)-ethyl]-3,5-dihydro-2H-pyrrolo[3,4-c]pyridine-1,6-dione] | +++ (+++ <10 μl min^−1 mg^−1) | +++ (+++ <10 μl min^−1 mg^−1) | > 500 | – | – | – | – |
| Cn1cc2c(c(-c3cccnc3)c1=O)C(=O)N(CCc1nc3ccccn3n1)C2 [Example 26, 5-Methyl-7-pyridin-3-yl-2-(2-[1,2,4]triazolo[1,5-a]pyridin-2-yl-ethyl)-3,5-dihydro-2H-pyrrolo[3,4-c]pyridine-1,6-dione] | +++ (+++ <10 μl min^−1 mg^−1) | ++ (++: <100 μl min^−1 mg^−1) | > 500 | – | – | – | – |
| Cn1cc2c(c(-c3ccc(F)cc3)c1=O)C(=O)N(CCc1ccc3ccccc3n1)C2 [Example 27, 7-(4-Fluoro-phenyl)-5-methyl-2-(2-quinolin-2-yl-ethyl)-3,5-dihydro-2H-pyrrolo[3,4-c]pyridine-1,6-dione] | +++ (+++ <10 μl min^−1 mg^−1) | ++ (++: <100 μl min^−1 mg^−1) | 100 to 200 | – | – | – | – |
| Cn1cc2c(c(-c3cncnc3)c1=O)C(=O)N(CCc1ccc3ccccc3n1)C2 [Example 28, 5-Methyl-7-pyrimidin-5-yl-2-(2-quinolin-2-yl-ethyl)-3,5-dihydro-2H-pyrrolo[3,4-c]pyridine-1,6-dione] | ++ (++: <100 μl min^−1 mg^−1) | ++ (++: <100 μl min^−1 mg^−1) | 100 to 200 | – | – | – | – |
| Cn1cc2c(c(-c3cn[nH]c3)c1=O)C(=O)N(CCc1ccc3ccccc3n1)C2 [Example 29, 5-Methyl-7-(1H-pyrazol-4-yl)-2-(2-quinolin-2-yl-ethyl)-3,5-dihydro-2H-pyrrolo[3,4-c]pyridine-1,6-dione] | +++ (+++ <10 μl min^−1 mg^−1) | ++ (++: <100 μl min^−1 mg^−1) | > 500 | – | – | – | – |
| COc1ccc(-c2c3c(cn(C)c2=O)CN(CCc2ccc4ccccc4n2)C3=O)cc1 [Example 31, 7-(4-Methoxy-phenyl)-5-methyl-2-(2-quinolin-2-yl-ethyl)-3,5-dihydro-2H-pyrrolo[3,4-c]pyridine-1,6-dione] | ++ (++: <100 μl min^−1 mg^−1) | ++ (++: <100 μl min^−1 mg^−1) | 100 to 200 | – | – | – | – |
| Cn1cc2c(c(-c3ccncc3)c1=O)C(=O)N(CCc1nc3ccccc3s1)C2 [Example 32, 2-[2-(1,3-benzothiazol-2-yl)ethyl]-5-methyl-7-(4-pyridyl)-3,5-dihydro-2H-pyrrolo[3,4-c]pyridine-1,6-dione] | +++ (+++ <10 μl min^−1 mg^−1) | +++ (+++ <10 μl min^−1 mg^−1) | > 500 | – | – | – | – |
| Cn1cc2c(c(N3CCOCC3)c1=O)C(=O)N(CCc1nc3ccccc3s1)C2 [Example 33, 2-[2-(1,3-benzothiazol-2-yl)ethyl]-5-methyl-7-morpholin-4-yl-3,5-dihydro-2H-pyrrolo[3,4-c]pyridine-1,6-dione] | +++ (+++ <10 μl min^−1 mg^−1) | +++ (+++ <10 μl min^−1 mg^−1) | 100 to 200 | – | – | – | – |
| Cn1cc2c(c(N3CCOCC3)c1=O)C(=O)N(CC(F)(F)c1ccc3ccccc3n1)C2 [Example 34, 2-(2,2-Difluoro-2-quinolin-2-yl-ethyl)-5-methyl-7-morpholin-4-yl-3,5-dihydro-2H-pyrrolo[3,4-c]pyridine-1,6-dione] | ++ (++: <100 μl min^−1 mg^−1) | ++ (++: <100 μl min^−1 mg^−1) | < 100 | – | – | – | – |
| COc1ccc(Cc2nccc3cc(OC)c(OC)cc23)cc1OC [Papaverine, papaverine] | – | – | – | reduced hyperactivity | insignificant | did not cause catalepsy on its own | potentiated the cataleptic effect |
